Laboratory results published in the supplement of paper PMC10307832.

How the values were obtained:
Assay in all cases: relative viability (nuclei count vs DMSO), 5 days (fraction); higher = more cells survive
[1] = compound: C1COCCN1C2=NC(=NC3=C2OC4=C3C=CC=N4)C5=CC(=CC=C5)NC(=O)C6=CN=C(C=C6)N + Cc1cc(Nc2cc(N3CCN(C)CC3)nc(Sc3ccc(NC(=O)C4CC4)cc3)n2)n[nH]1 [Tozasertib] (partner 0.1 µM)
Procedure, shortened: (§1)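 Cells from lung cancer lines were seeded into 1536-well plates and, one day later, dosed by pin tool. Treatments were either a single drug or a fixed dose of an anchor drug with five library-drug doses (not always all listed) in √10 steps. After 5 days, nuclei were stained in a one-step fixation (final 0.05% Triton X-100, 1% formaldehyde, 1 ug/ml Hoechst) and counted on 4× images, and relative viability is the treated-to-vehicle nuclei ratio, as the median of duplicate plates.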

[2] = compound: C1COCCN1C2=NC(=NC3=C2OC4=C3C=CC=N4)C5=CC(=CC=C5)NC(=O)C6=CN=C(C=C6)N + COc1cccc2cc(-c3nc([C@H]4CC[C@H](C(=O)O)CC4)n4ncnc(N)c34)[nH]c12 [OSI-027] (partner 0.5 µM)
Procedure, shortened: as §1

[3] = compound: C1COCCN1C2=NC(=NC3=C2OC4=C3C=CC=N4)C5=CC(=CC=C5)NC(=O)C6=CN=C(C=C6)N + N=C(N)NC(=N)NCCc1ccccc1 [Phenformin] (partner 250 µM)
Procedure, shortened: as §1

SGI-1776 + Pictilisib = compound: CN1CCC(CNc2ccc3ncc(-c4cccc(OC(F)(F)F)c4)n3n2)CC1 [SGI-1776] + CS(=O)(=O)N1CCN(Cc2cc3nc(-c4cccc5[nH]ncc45)nc(N4CCOCC4)c3s2)CC1 [Pictilisib] (partner 1 µM)
Procedure, shortened: as §1

UMC-11
relative viability ([1]; first compound 0.02 µM): 0.205
relative viability ([1]; first compound 0.06325 µM): 0.188
relative viability ([1]; first compound 0.2 µM): 0.193
relative viability ([1]; first compound 0.6325 µM): 0.182
relative viability ([1]; first compound 2 µM): 0.177
relative viability ([2]; first compound 0.02 µM): 0.443
relative viability ([2]; first compound 0.06325 µM): 0.511
relative viability ([2]; first compound 0.2 µM): 0.46
relative viability ([2]; first compound 0.6325 µM): 0.406
relative viability ([2]; first compound 2 µM): 0.375
relative viability ([3]; first compound 0.02 µM): 0.302
relative viability ([3]; first compound 0.06325 µM): 0.327
relative viability ([3]; first compound 0.2 µM): 0.33
relative viability ([3]; first compound 0.6325 µM): 0.308
relative viability ([3]; first compound 2 µM): 0.204
relative viability (SGI-1776 + Pictilisib; first compound 0.08 µM): 0.791
relative viability (SGI-1776 + Pictilisib; first compound 0.8 µM): 0.987
relative viability (SGI-1776 + Pictilisib; first compound 2.53 µM): 0.812
relative viability (SGI-1776 + Pictilisib; first compound 8 µM): 0.498
